Literature values, collected in patent EP4052553A1, “AGRICHEMICAL COMPOSITION FOR TREATING SEEDS AND USE THEREOF” (priority 2019, dated 2021).

Details: distilled water at 20°C

CCC(CC)Nc1c([N+](=O)[O-])cc(C)c(C)c1[N+](=O)[O-] [Pendimethalin]
aqueous solubility: 0.26 ppm

CS(=O)(=O)c1ccc(C(=O)C2=C(Sc3ccccc3)C3CCC(C3)C2=O)c(Cl)c1 (stereo not drawn) [benzobicyclon]
aqueous solubility: 0.052 ppm

Cc1ccc(C(=O)COc2c(C(=O)c3ccc(Cl)c(C)c3Cl)c(C)nn2C)cc1 [benzofenap]
aqueous solubility: 0.12 ppm

CCOC(=O)c1ccccc1S(=O)(=O)NC(=O)Nc1nc(Cl)cc(OC)n1 [chlorimuron-ethyl]
aqueous solubility: 8.6 ppm

COc1cc(OC)nc(NC(=O)NS(=O)(=O)Nc2ccccc2C(=O)C2CC2)n1 [cyclosulfamuron]
aqueous solubility: 0.34 ppm

COc1ccc(-n2c(=O)c(C(=O)C3C(=O)CCCC3=O)nc3c(Cl)cccc32)cc1 [fenquinotrione]
aqueous solubility: 17 ppm

COC(=O)c1c(Cl)nn(C)c1S(=O)(=O)NC(=O)Nc1nc(OC)cc(OC)n1 [halosulfuron-methyl]
aqueous solubility: 10.2 ppm

C[C@@H](Oc1ccc(Oc2nc3ccc(Cl)cc3o2)cc1)C(=O)N(C)c1ccccc1F [metamifop]
aqueous solubility: 0.69 ppm

CC(C)=C1OC(=O)N(c2cc(OC3CCCC3)c(Cl)cc2F)C1=O [pentoxazone]
aqueous solubility: 0.22 ppm

CCCOCCN(C(=O)CCl)c1c(CC)cccc1CC [pretilachlor]
aqueous solubility: 74 ppm

CCCc1ccc2nc(Cl)c(S(=O)(=O)NC(=O)Nc3nc(OC)cc(OC)n3)n2n1 [propyrisulfuron]
aqueous solubility: 0.98 ppm

C#CCN(C)c1c(C#N)cnn1-c1nn2c(c1Cl)CCCC2 [pyraclonil]
aqueous solubility: 50.1 ppm

CCOC(=O)c1cnn(C)c1S(=O)(=O)NC(=O)Nc1nc(OC)cc(OC)n1 [pyrazosulfuron-ethyl]
aqueous solubility: 9.8 ppm

COc1cc(OC)nc(Oc2cccc(Oc3nc(OC)cc(OC)n3)c2C(=O)ON=C(c2ccccc2)c2ccccc2)n1 [pyribenzoxim]
aqueous solubility: 3.5 ppm

COc1cc(OC)nc(Sc2cccc3c2C(=O)OC3C)n1 (stereo not drawn) [pyriftalid]
aqueous solubility: 1.8 ppm

CO/N=C(/C)c1cccc(Oc2nc(OC)cc(OC)n2)c1C(=O)OC [pyriminobac-methyl]
aqueous solubility: 9.3 ppm

COCc1cccc(C(O)c2nc(OC)cc(OC)n2)c1NS(=O)(=O)C(F)F (stereo not drawn) [pyrimisulfan]
aqueous solubility: 87 ppm

COc1nc(OC)nc(C(=O)c2cccc(F)c2N(C)S(=O)(=O)C(F)F)n1 [triafamone]
aqueous solubility: 41 ppm
